In patent publication US6849728B1, “GLUT10: a glucose transporter in the type 2 diabetes linked region of chromosome 20Q12-13.1” (Wake Forest University Health Sciences, priority 2000, dated 2005):
Positions count from the first letter of the chain named. Entries after “also recorded” stand apart in the source; their conditions may differ. Values belong to the molecule of their own block, whether it stands above or below them.

How the values were obtained:
human GLUT10 = biological target: T1, human GLUT10 (Homo sapiens, UniProt O95528); test: 2-DOG uptake in Xenopus oocytes injected with GLUT10 RNA; format: cell-based; conditions: for effect of competitors on [3H]2-DOG uptake: 100-fold excess: 25 mM competitor
T1 construct: A full-length GLUT10 cDNA was cloned into the expression vector pCMV-Tag4a (Stratagene); expressed in transfected cells; host or cells: Xenopus laevis oocytes injected with capped mRNA
T1 sequence (O95528 1-541): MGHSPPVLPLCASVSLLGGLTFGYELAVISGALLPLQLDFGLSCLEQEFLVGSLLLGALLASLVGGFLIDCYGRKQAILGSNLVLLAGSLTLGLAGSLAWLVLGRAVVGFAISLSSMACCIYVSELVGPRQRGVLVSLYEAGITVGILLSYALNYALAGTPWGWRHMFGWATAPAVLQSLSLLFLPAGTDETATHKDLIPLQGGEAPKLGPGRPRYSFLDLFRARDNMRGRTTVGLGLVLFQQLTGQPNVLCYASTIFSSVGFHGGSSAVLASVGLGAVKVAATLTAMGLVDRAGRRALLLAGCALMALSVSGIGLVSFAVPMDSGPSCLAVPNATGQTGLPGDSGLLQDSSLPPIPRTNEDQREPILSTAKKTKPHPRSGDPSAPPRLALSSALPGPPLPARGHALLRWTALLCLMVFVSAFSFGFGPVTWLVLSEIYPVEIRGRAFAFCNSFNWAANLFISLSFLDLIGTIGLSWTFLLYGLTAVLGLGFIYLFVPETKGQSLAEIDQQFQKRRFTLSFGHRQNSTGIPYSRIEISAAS
Excerpt: (§1) Material and Methods. A full-length GLUT10 cDNA was cloned into the expression vector pCMV-Tag4a (Stratagene). A PCR-based strategy employing Pfu polymerase was used for site-directed mutagenesis to generate the GLUT10 single nucleotide polymorpisms. The PCR products were digested with Eco RI, subcloned into pCMV-Tag4a, and the complete insert was sequenced to confirm the identity of the A206T and A287T GLUT10 glucose transporter cDNAs. The pcDNA3.1/GS plasmids expressing the full-length GLUT3 and GLUT4 cDNA were purchased from Invitrogen Corporation. Capped mRNA was generated using the mMESSAGE mMACHINE™ transcription kit (Ambion Inc).
Adult female Xenopus laevis were obtained from Xenopus Express (Homosassa, Fla.) and housed at 17-19° C. on a twelve-hour light/dark cycle. Stage V-VI oocytes were removed from anesthetized frogs and placed in isolation media (108 mM NaCl, 1 mM EDTA, 2 mM KCl, 10 mM HEPES, pH 7.5). The oocyte follicular layer was removed by immersion in 0.5 mg/ml collagenase buffer (83 mM NaCl, 2 mM KCl, 1 mM MgCl2, and 5 mM HEPES, pH 7.5). Isolated oocytes were maintained in modified Barth's saline (MBS; 88 mM NaCl, 1 mM KCl, 10 mM HEPES, 0.82 mM MgSO4, 2.4 mM NaHCO3, 0.91 mM CaCl2, and 0.33 mM Ca(NO3)2, pH 7.5). Visually healthy oocytes were injected with 30 nl of either a mRNA solution (1.0 μg/μl) or sterile water at the interface between the animal and vegetal poles. Individual oocytes were placed in 96-well microtiter plates (Costar Corporation) containing MBS plus 2 mM sodium pyruvate, 0.5 mM theophylline, 10 U/ml penicillin, 10 mg/l streptomycin and 50 mg/] gentamycin (Sigma) at 22° C.
(§2) DOG (final specific activity=0.5 Ci/mmol) (NEN Life Science Products, Inc.; American Radiochemical Company). Competitors, inhibitors, or insulin were added to the incubation as indicated. Uptake was terminated by removal of the radioactive solution and three 500 μl washes with ice-cold MBS containing 0.1 mM phloretin (Sigma). Pools of oocytes were dissolved in 10% SDS, mixed with scintillation fluid, and internalized radioactivity was measured by scintillation spectrometry using a Beckman LS-600 scintillation counter. Data are expressed as the arithmetic mean or median of duplicate or triplicate pools of 4 to 12 oocytes at each data point. Transport kinetics were analyzed by best-fit analysis of data points (Cricket Graph, Computer Associates) and Eadie-Hofstee transformation.

GLUT10 A206T = biological target: T2, GLUT10 A206T (Homo sapiens, UniProt O95528, A206T); test: 2-DOG uptake in Xenopus oocytes expressing GLUT10 A206T isoform; format: cell-based; conditions: pre-incubation with insulin
T2 construct: A full-length GLUT10 cDNA was cloned into the expression vector pCMV-Tag4a (Stratagene); expressed in transfected cells; host or cells: Xenopus laevis oocytes injected with capped mRNA
T2 sequence (O95528 1-541 A206T): T1 sequence (O95528 1-541) with A206T
Excerpt: as §1
(§3) Adult female Xenopus laevis were obtained from Xenopus Express (Homosassa, Fla.) and housed at 17-19° C. on a twelve-hour light/dark cycle. […]
as §2, with “Competitors, inhibitors, or insulin were added to the incubation as indicated. Uptake was terminated by removal of the radioactive solution and three 500 μl washes with ice-cold MBS containing 0.1 mM phloretin (Sigma).” left out, “transformation. […]” for “transformation.”

human GLUT4 = biological target: T3, human GLUT4 (Homo sapiens, UniProt P14672); test: 2-DOG uptake in Xenopus oocytes injected with GLUT4 RNA; format: cell-based; conditions: pre-incubation with 100 μM insulin for 30 min, 250 μM [3H]2-DOG
T3 construct: The pcDNA3.1/GS plasmids expressing the full-length GLUT3 and GLUT4 cDNA were purchased from Invitrogen Corporation; host or cells: Xenopus laevis oocytes injected with capped mRNA
T3 sequence (P14672 1-509): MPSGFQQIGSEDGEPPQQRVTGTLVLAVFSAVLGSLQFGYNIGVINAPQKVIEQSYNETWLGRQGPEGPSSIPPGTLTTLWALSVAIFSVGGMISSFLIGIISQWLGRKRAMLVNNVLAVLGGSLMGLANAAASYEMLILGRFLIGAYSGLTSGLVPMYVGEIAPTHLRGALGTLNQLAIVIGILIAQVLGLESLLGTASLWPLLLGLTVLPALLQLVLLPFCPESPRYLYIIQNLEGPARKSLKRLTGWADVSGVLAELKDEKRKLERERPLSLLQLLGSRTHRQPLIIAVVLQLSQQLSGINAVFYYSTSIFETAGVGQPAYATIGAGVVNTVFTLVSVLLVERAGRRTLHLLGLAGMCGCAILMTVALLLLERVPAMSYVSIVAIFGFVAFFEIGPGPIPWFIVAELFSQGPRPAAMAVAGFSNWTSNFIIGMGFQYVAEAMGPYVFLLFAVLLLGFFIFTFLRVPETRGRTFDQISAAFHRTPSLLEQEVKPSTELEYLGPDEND
Excerpt: as §1, §3
as §2, with “Competitors, inhibitors, or insulin were added to the incubation as indicated. Uptake was terminated by removal of the radioactive solution and three 500 μl washes with ice-cold MBS containing 0.1 mM phloretin (Sigma).” left out

GLUT10 A28T = biological target: T4, GLUT10 A28T (Homo sapiens, UniProt O95528, A287T); test: 2-DOG uptake in Xenopus oocytes expressing GLUT10 A28T isoform; format: cell-based; conditions: pre-incubation with insulin
T4 construct: A full-length GLUT10 cDNA was cloned into the expression vector pCMV-Tag4a (Stratagene); expressed in transfected cells; host or cells: Xenopus laevis oocytes injected with capped mRNA
T4 sequence (O95528 1-541 A287T): T1 sequence (O95528 1-541) with A287T
Excerpt: as §1, §3
as §2, with “Competitors, inhibitors, or insulin were added to the incubation as indicated. Uptake was terminated by removal of the radioactive solution and three 500 μl washes with ice-cold MBS containing 0.1 mM phloretin (Sigma).” left out, “transformation. […]” for “transformation.”

[1] = substrate: O=CC[C@@H](O)[C@H](O)[C@H](O)CO; test: cells, lysate or membranes; conditions: Eadie-Hofstee analysis, pH 7.5
[2] = 250 μM [3H]2-DOG, 30 min at 22° C.

- 2-DOG uptake over the water-injected controls (human GLUT10; 25 μM 2-DOG, 30 min at 22° C., 3 days after injection of 30 ng GLUT10 RNA): 5 fold
- effect of competitors on [3H]2-DOG uptake (human GLUT10; [2]): effectively competed
- Vmax of 2-DOG uptake (human GLUT10; GLUT10 RNA-injected oocytes, 30 min at 22° C., Eadie-Hofstee analysis): 0.85 pmol oocyte^−1 30 min^−1
- Km (human GLUT10; read-out: apparent Km for 2-DOG transport, GLUT10 mRNA-injected oocytes, 30 min, Eadie-Hofstee analysis): ~300 µM
Molecule: O=CC[C@@H](O)[C@H](O)[C@H](O)CO [2-DOG, 2-deoxy-D-glucose]

Molecule: O=C[C@H](O)[C@@H](O)[C@@H](O)[C@H](O)CO [D-galactose]
- effect of competitors on [3H]2-DOG uptake (human GLUT10; [2]): inhibited 2-DOG uptake but less effectively; also recorded: competed

- effect of competitors on [3H]2-DOG uptake (human GLUT10; [2]): effectively competed
Molecule: O=C[C@H](O)[C@@H](O)[C@H](O)[C@H](O)CO [D-glucose]

- effect of competitors on [3H]2-DOG uptake (human GLUT10; [2]): did not inhibit
Molecule: O=C(CO)[C@@H](O)[C@H](O)[C@H](O)CO [fructose]

Molecule: O=C(CCc1ccc(O)cc1)c1c(O)cc(O)cc1O [phloretin]
- effect of phloretin on 2-DOG uptake (human GLUT10; 100 μM phloretin, 25 μM [3H]2-DOG, 30 min at 22° C.): inhibited

- insulin stimulation of 2-DOG uptake activity (GLUT10 A206T): not stimulated
- insulin stimulation of 2-DOG transport (human GLUT4): stimulated
- insulin stimulation of glucose transport (human GLUT10; pre-incubation with insulin, oocytes injected with GLUT10 mRNA): approximately 2 fold
- insulin stimulation of 2-DOG transport (human GLUT10; wild type GLUT10, pre-incubation with 100 μM insulin for 30 min, 250 μM [3H]2-DOG): stimulated
- insulin stimulation of 2-DOG uptake activity (GLUT10 A28T): not stimulated
Molecule: insulin

B1: human GLUT10 (Homo sapiens) (protein)
chain: T1 sequence (O95528 1-541)
- Km ([1]; other: GLUT10 RNA (30 ng) injected oocytes, 30 min at 22° C., corrected for water-injected background): 280 µM
- Km ([1]; other: GLUT10 mRNA-injected oocytes, 30 min, 22.0 °C): 300 µM
